Measured values as given in patent US8158621B2, “Methods of treating or preventing autoimmune diseases with 2,4-pyrimidinediamine compounds” (Rigel Pharmaceuticals, Inc., priority 2002, dated 2012).
Several values for one entry are separate records, joined by “and”; a condition that tells them apart may be missing. Identical values can stand only once.

Legend:
[1] = tested on: cultured human mast cells (CHMC); experiment: CHMC low cell density IgE activation: tryptase assay; format: cell-based
Method in brief: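 Low-density CHMC assay: donor-adjusted 1000-1500 cells/well, MT buffer, 1 hr 37° C preincubation; anti-IgE stimulus 30 min 37° C versus MT-only controls; supernatant tryptase by substrate, 30 min RT.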

[2] = tested on: basophil cells (human peripheral blood); experiment: Basophil ionomycin activation: histamine release assay; format: cell-based; conditions: basophils, ionomycin activation, histamine release; read-out: Basophils Ionomycin Histamine IC50
Method in brief: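 Dextran-sedimented leukocytes from peripheral blood of dust-mite-allergic human donors were incubated with compound (8 concentrations, 0.5% DMSO, triplicate) and then stimulated with 2 μM ionomycin stock (20 μl added) for 30 min at 37° C. Histamine released into the supernatant was measured by ELISA.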

[3] = tested on: cultured human mast cells (CHMC); experiment: CHMC low cell density ionomycin activation: tryptase assay; format: cell-based; conditions: low cell density; read-out: CHMC Ionomycin Tryptase
[4] = tested on: FcγRI-mediated degranulation; experiment: FcγRI-mediated degranulation (anti-human IgG Fab activation); format: cell-based; conditions: cells not primed with IgE, activated with rabbit anti-human IgG Fab fragment
Syk kinase = biological target: T1, Syk kinase (Homo sapiens, UniProt P43405); experiment: Syk kinase biochemical fluorescence polarization assay; conditions: isolated Syk kinase, fluorescence polarization, 4 uM ATP
T1 construct: purchased Upstate, Lake Placid NY

[5] = Mouse Reverse Passive Arthus reaction (RPA reaction); format: in vivo, C57BL/6 mice; conditions: oral, 100 mg/kg
Method in brief: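 C57BL/6 mice dosed with compound before challenge, pretreatment time set by each compound's PK; rabbit anti-OVA IgG (50 μg/mouse) given intradermally, then ovalbumin 20 mg/kg i.v. with 1% Evans blue. Dorsal skin edema and hemorrhage read by dye extravasation at 4 h; purified polyclonal rabbit IgG as control.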

Primary T-cells [6] = experiment: Primary T-cell cytokine production (αCD3/αCD28): GMSCF; format: cell-based, human; conditions: read-out: 1° T-Cell GMSCF IC50
Method: (§1) 2E8-4E8 PBMC or proliferating T cells grown in rIL-2 from healthy human donors were suspended in PBS were spun down (1500 rpm, 8-10 minutes) and resuspended in 100 ml RPMI Complete media (1% Pen-Strep, 1% L-Glutamine, 10 mM HEPES). The cells were plated in T175 flasks (37° C., 5% CO2) and monocytes were allowed to adhere for 2-3 hours. After monocyte attachment, non-adherent cells were harvested, counted by hemocytometer, washed several times with PBS then resuspended in Yssels Complete Media (Modified IMDM Media with 1% Human AB Serum, 1% Pen-Strep, 1% L-Glutamine, 10 mM HEPES) at […]. 90 uL of the cell dilution were then added to compounds diluted to 2× in Yssel's media and incubated for 30 minutes at 37° C. (5% CO2). After this preincubation step the compound/cell mixture was transferred to stimulation plates, as described below.
(§2) Stimulation plates were prepared by coating 96 well plates with 5 μg/ml αCD3 (BD PharMingen, Catalog #555336)+10 μg/ml αCD28 (Beckman Coulter, Catalog #IM1376) in PBS (no Ca^2+/Mg^2+) at 37° C. (5% CO2) for at 3-5 hours. After incubation with the stimulation antibodies, the cocktail was removed and the plates washed 3 times with PBS prior to addition of the primary T cell/compound mixture.
(§3) The compound/cell mixture was transferred to the stimulation plates and incubated for 18 hr at 37° C. (5% CO2). After the cell stimulation, ˜150 μl supernatant were transferred from each well into 96-well filter plates (Coming PVDF Filter Plates) spun down (2000 rpm, 2-3 minutes) and either used immediately for ELISA or LUMINEX measurements or frozen down at −80° C. for future use.
(§4) Luminex immunoassay multiplexing for TNF, IL-2, GMSCF, IL-4 and IFNg was performed essentially as described by the manufacturer (Upstate Biotechnology). Essentially 50 uL of sample was diluted into 50 uL assay diluent and 50 uL incubation buffer, then incubated with 100 uL of the diluted detection antibody for 1 hr at RT in the dark. The filter plate was washed 2× in Wash Buffer, then incubated with 100 uL of the diluted secondary reagent (SAV-RPE) for 30 min at RT in the dark. Finally the plates were washed 3 times and bead identification and RPE fluorescent measured by the Luminex instrument.
(§5) Varied concentrations of compound were compared to solvent only to determine the inhibition of T-cell activation IC50 of each compound.

Primary T-cells [7] = experiment: Primary T-cell cytokine production (αCD3/αCD28): IL-4; format: cell-based, human; conditions: read-out: 1° T-Cell IL4 IC50
Method: as §1, §2, §3, §4, §5

Primary T-cells [8] = experiment: Primary T-cell cytokine production (αCD3/αCD28): IFNg; format: cell-based, human; conditions: read-out: 1° T-Cell IFNg IC50
Method: as §1, §2, §3, §4, §5

[9] = low cell density, read-out: CHMC anti-IgE Tryptase
[10] = pretreatment time 0.5 hrs + 4 hours
[11] = pretreatment time 1 hrs + 4 hours
[12] = pretreatment time 2 hrs + 4 hours

`COc1ccc(Nc2ncc(F)c(Nc3cccc(O)c3)n2)cc1OC` [Compound R926113] showed an IC50 ([1]; Low Density CHMC, anti-IgE activation, tryptase release, read-out: CHMC anti-IgE Tryptase IC50) of 413 nM and an IC50 [2] greater than 10000 nM.

Compound `CNC(=O)COc1cccc(Nc2ncc(F)c(Nc3cccc(O)c3)n2)c1` [Compound R926508] has an IC50 [2] greater than 10000 nM.

With `COc1cc(Nc2ncc(F)c(Nc3ccc4c(c3)NC(=O)C(C)(C)O4)n2)cc(OC)c1` [Compound R927050] the IC50 [1, 9] was 73 nM, the IC50 [3] was 3290 nM and the “inhibition of FcγRI-mediated degranulation” value [4] was “inhibit FcγRI-mediated degranulation”. For the same compound, the IC50 (Syk kinase) was 114 nM, the “% inhibition to vehicle control Edema Size ± SEM” value ([5]; pretreatment time 0.5 hrs) was −0.3 ± 6.6% and the “Plasma Concentration ± SEM (ng/ml) Exposure = Pretreatment Time + 4 hours” value (from here on “Plasma Concentration ± SEM”) [5, 10] was 619 ± 130 ng/mL. The “% inhibition to vehicle control Edema Size ± SEM” value ([5]; pretreatment time 1 hrs) was 14.9 ± 20.5% and 7 ± 19%, the “Plasma Concentration ± SEM” value [5, 11] was 837 ± 104 ng/mL and 1018 ± 189 ng/mL and the “% inhibition to vehicle control Edema Size ± SEM” value ([5]; pretreatment time 2 hrs) was 64.0 ± 8.9%. The “Plasma Concentration ± SEM” value [5, 12] was 557 ± 78 ng/mL, the IC50 (Primary T-cells [6]) was 1120 nM and the IC50 (Primary T-cells [7]) was 275 nM. It also gave an IC50 (Primary T-cells [8]) of 916 nM.

`CC1(C)Oc2ccc(Nc3nc(Nc4cc(Cl)cc(Cl)c4)ncc3F)cc2NC1=O` [Compound R927064] showed an IC50 [1, 9] of 212 nM, an IC50 [3] of 7240 nM and an IC50 (Syk kinase) of 466 nM. For the same compound, the IC50 (Primary T-cells [6]) was greater than 10000 nM and the IC50 (Primary T-cells [8]) was greater than 10000 nM.

`OCCCn1ncc2cc(Nc3ncc(F)c(Nc4ccc(Cl)c(Cl)c4)n3)ccc21` [Compound R935391] gave an IC50 [1, 9] of 212 nM, an IC50 [3] greater than 10000 nM and an IC50 (Syk kinase) of 223 nM.

In the case of `CNC(=O)COc1cccc(Nc2ncc(F)c(Nc3ccc4c(n3)NC(=O)C(C)(C)O4)n2)c1` [Compound R940347], the “inhibition of FcγRI-mediated degranulation” value [4] is reported as “inhibit FcγRI-mediated degranulation”, the inhibition of edema ([5]; 2 hours prior to challenge) is reported as 89% and the “% inhibition to vehicle control Edema Size ± SEM” value ([5]; pretreatment time 0.5 hrs) is reported as 36.7 ± 22.4%. For the same compound, the “% inhibition to vehicle control Edema Size ± SEM” value ([5]; pretreatment time 1 hrs) was 48.2 ± 5.7% and 48%, the “% inhibition to vehicle control Edema Size ± SEM” value ([5]; pretreatment time 2 hrs) was 88.9 ± 9.1% and 89% and the IC50 (Primary T-cells [6]) was 1610 nM. The IC50 (Primary T-cells [7]) was 212 nM and the IC50 (Primary T-cells [8]) was 1670 nM.

For `CC1(C)Oc2ccc(Nc3ncc(F)c(Nc4ccc5c(c4)NC(=O)C(C)(C)O5)n3)cc2NC1=O` [Compound R940350], the “inhibition of FcγRI-mediated degranulation” value [4] was “inhibit FcγRI-mediated degranulation”, the IC50 (Syk kinase) was 121 nM and the “% inhibition to vehicle control Edema Size ± SEM” value ([5]; pretreatment time 0.5 hrs) was −15.6 ± 27.2%. For the same compound, the “Plasma Concentration ± SEM” value [5, 10] was 176 ± 58 ng/mL, the “Plasma Concentration ± SEM” value [5, 11] was 129 ± 55 ng/mL and the “% inhibition to vehicle control Edema Size ± SEM” value ([5]; pretreatment time 2 hrs) was 38.9 ± 24.3%. For the same compound, the “Plasma Concentration ± SEM” value [5, 12] was 96 ± 28 ng/mL, the IC50 (Primary T-cells [6]) was 2450 nM and the IC50 (Primary T-cells [7]) was 501 nM. For the same compound, the IC50 (Primary T-cells [8]) was 2470 nM.

Work on `CC1(C)Oc2ccc(Nc3nc(Nc4ccc5cn[nH]c5c4)ncc3F)cc2NC1=O` [Compound R940363] yielded an IC50 [1, 9] of 48 nM, an IC50 [3] greater than 10000 nM and an IC50 (Syk kinase) of 6 nM. For the same compound, the “% inhibition to vehicle control Edema Size ± SEM” value ([5]; pretreatment time 0.5 hrs) was −16.4 ± 10.9%, the “Plasma Concentration ± SEM” value [5, 10] was 32 ± 10 ng/mL and the “% inhibition to vehicle control Edema Size ± SEM” value ([5]; pretreatment time 1 hrs) was 67.6 ± 12.1% and 61 ± 8%. The “% inhibition to vehicle control Edema Size ± SEM” value ([5]; pretreatment time 2 hrs) was 52.3 ± 22.7% and the “Plasma Concentration ± SEM” value [5, 12] was 37 ± 18 ng/mL.
